species on record: Homo sapiens; assay: Selectivity factor, ratio of IC50 for Bad-derived peptide from Bcl-XL (unknown origin) to IC50 for displacement of Bax-derived peptide from Bcl-2 (unknown origin)

SMILES | Ratio IC50
CC1(C)CCC(c2ccc(Cl)cc2)=C(CN2CCN(c3ccc(C(=O)NS(C)(=O)=O)cc3)CC2)C1 | > 2.02
CC1(C)CCC(c2ccc(Cl)cc2)=C(CN2CCN(c3ccc(C(=O)NS(=O)(=O)c4ccc(N[C@@H](CC5CC5)C(=O)N5CCOCC5)c(S(=O)(=O)C(F)(F)F)c4)cc3)CC2)C1 | 0.87
CN(C)c1ccc(S(=O)(=O)NC(=O)c2ccc(N3CCN(CC4=C(c5ccc(Cl)cc5)CCC(C)(C)C4)CC3)cc2)cc1S(=O)(=O)C(F)(F)F | 3.34
CC1(C)CCC(c2ccc(Cl)cc2)=C(CNC2(Cn3cnc4cc(C(=O)NS(=O)(=O)c5ccc(N[C@H](CCN6CCOCC6)CSc6ccccc6)c(S(=O)(=O)C(F)(F)F)c5)ccc43)CC2)C1 | 0.27
CC1(C)CCC(c2ccc(Cl)cc2)=C(CN2CCN(c3ccc(C(=O)NS(=O)(=O)c4ccc(OCC5(CN6CCOCC6)COC5)c(S(=O)(=O)C(F)(F)F)c4)cc3)CC2)C1 | 3.4
CC1(C)CCC(c2ccc(Cl)cc2)=C(CN2CCN(c3ccc(C(=O)NS(=O)(=O)c4ccc(NC5(CN6CCOCC6)CC5)c(S(=O)(=O)C(F)(F)F)c4)cc3)CC2)C1 | 1.36
CC1(C)CCC(c2ccc(Cl)cc2)=C(CN2CCc3sc(C(=O)NS(=O)(=O)c4ccc(N[C@H](CCN5CCOCC5)CSc5ccccc5)c(S(=O)(=O)C(F)(F)F)c4)cc3C2)C1 | 0.46
CN1CCN(S(=O)(=O)NC(=O)c2ccc(N3CCN(CC4=C(c5ccc(Cl)cc5)CCC(C)(C)C4)CC3)cc2)CC1 | > 5.93
CC1(C)CCC(c2ccc(Cl)cc2)=C(CN2CCc3ccc(C(=O)NS(=O)(=O)c4ccc(N[C@H](CCN5CCOCC5)CSc5ccccc5)c(S(=O)(=O)C(F)(F)F)c4)cc3CC2)C1 | 0.13

The remaining lines, values ahead:

Ratio IC50 | SMILES
9.83 | CC1(C)CCC(c2ccc(Cl)cc2)=C(CN2CCN(c3ccc(C(=O)NS(=O)(=O)c4ccc(NC5(CN6CC(F)(F)C6)CC5)c(S(=O)(=O)C(F)(F)F)c4)cc3)CC2)C1
0.35 | CC1(C)CCC(c2ccc(Cl)cc2)=C(CN2CCc3nc(C(=O)NS(=O)(=O)c4ccc(N[C@H](CCN5CCOCC5)CSc5ccccc5)c(S(=O)(=O)C(F)(F)F)c4)sc3C2)C1
3.48 | CC1(C)CCC(c2ccc(Cl)cc2)=C(CN2CCN(c3ccc(C(=O)NS(=O)(=O)c4ccc(N5CC(F)(F)C5)c(S(=O)(=O)C(F)(F)F)c4)cc3)CC2)C1
1.15 | CC1(C)CCC(c2ccc(Cl)cc2)=C(CN2CCc3cc(C(=O)NS(=O)(=O)c4ccc(N[C@H](CCN5CCOCC5)CSc5ccccc5)c(S(=O)(=O)C(F)(F)F)c4)ccc3C2)C1
6.06 | CC1(C)CCC(c2ccc(Cl)cc2)=C(CN2CCN(c3ccc(C(=O)NS(=O)(=O)c4ccc(OCC5(CN6CC(F)(F)C6)COC5)c(S(=O)(=O)C(F)(F)F)c4)cc3)CC2)C1
2.53 | CN(CCO)c1ccc(S(=O)(=O)NC(=O)c2ccc(N3CCN(CC4=C(c5ccc(Cl)cc5)CCC(C)(C)C4)CC3)cc2)cc1S(=O)(=O)C(F)(F)F
1.62 | CC1(C)CCC(c2ccc(Cl)cc2)=C(CN2CCN(c3ccc(C(=O)NS(=O)(=O)c4ccc(N[C@@H](CC5CC5)CN5CCOCC5)c(S(=O)(=O)C(F)(F)F)c4)cc3)CC2)C1
> 14.8 | Cn1ccc(S(=O)(=O)NC(=O)c2ccc(N3CCN(CC4=C(c5ccc(Cl)cc5)CCC(C)(C)C4)CC3)cc2)n1

target: Bcl-2-like protein 1 (Homo sapiens, UniProt Q07817); assay: Displacement of Bad-derived peptide from Bcl-XL (unknown origin) by fluorescence polarization assay
Sequence (Q07817 whole entry): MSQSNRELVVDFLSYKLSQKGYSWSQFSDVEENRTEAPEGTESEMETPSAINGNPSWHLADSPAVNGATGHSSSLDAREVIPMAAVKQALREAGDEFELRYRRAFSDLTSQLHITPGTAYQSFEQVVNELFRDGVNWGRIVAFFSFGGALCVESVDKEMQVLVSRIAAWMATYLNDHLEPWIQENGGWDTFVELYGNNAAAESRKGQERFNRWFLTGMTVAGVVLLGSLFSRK

SMILES | IC50 [nM]
CC1(C)CCC(c2ccc(Cl)cc2)=C(CN2CCN(c3ccc(C(=O)NS(C)(=O)=O)cc3)CC2)C1 | > 1000
CC1(C)CCC(c2ccc(Cl)cc2)=C(CN2CCN(c3ccc(C(=O)NS(=O)(=O)c4ccc(N[C@@H](CC5CC5)C(=O)N5CCOCC5)c(S(=O)(=O)C(F)(F)F)c4)cc3)CC2)C1 | 59.3
CN(C)c1ccc(S(=O)(=O)NC(=O)c2ccc(N3CCN(CC4=C(c5ccc(Cl)cc5)CCC(C)(C)C4)CC3)cc2)cc1S(=O)(=O)C(F)(F)F | 218
CC1(C)CCC(c2ccc(Cl)cc2)=C(CNC2(Cn3cnc4cc(C(=O)NS(=O)(=O)c5ccc(N[C@H](CCN6CCOCC6)CSc6ccccc6)c(S(=O)(=O)C(F)(F)F)c5)ccc43)CC2)C1 | 29.3
CC1(C)CCC(c2ccc(Cl)cc2)=C(CN2CCN(c3ccc(C(=O)NS(=O)(=O)c4ccc(OCC5(CN6CCOCC6)COC5)c(S(=O)(=O)C(F)(F)F)c4)cc3)CC2)C1 | 49.3
CC1(C)CCC(c2ccc(Cl)cc2)=C(CN2CCN(c3ccc(C(=O)NS(=O)(=O)c4ccc(NC5(CN6CCOCC6)CC5)c(S(=O)(=O)C(F)(F)F)c4)cc3)CC2)C1 | 55.3
CC1(C)CCC(c2ccc(Cl)cc2)=C(CN2CCc3sc(C(=O)NS(=O)(=O)c4ccc(N[C@H](CCN5CCOCC5)CSc5ccccc5)c(S(=O)(=O)C(F)(F)F)c4)cc3C2)C1 | 26.6
CN1CCN(S(=O)(=O)NC(=O)c2ccc(N3CCN(CC4=C(c5ccc(Cl)cc5)CCC(C)(C)C4)CC3)cc2)CC1 | > 1000
CC1(C)CCC(c2ccc(Cl)cc2)=C(CN2CCc3ccc(C(=O)NS(=O)(=O)c4ccc(N[C@H](CCN5CCOCC5)CSc5ccccc5)c(S(=O)(=O)C(F)(F)F)c4)cc3CC2)C1 | 25.6

Further lines, results first:

IC50 [nM] | SMILES
342 | CC1(C)CCC(c2ccc(Cl)cc2)=C(CN2CCN(c3ccc(C(=O)NS(=O)(=O)c4ccc(NC5(CN6CC(F)(F)C6)CC5)c(S(=O)(=O)C(F)(F)F)c4)cc3)CC2)C1
13.2 | CC1(C)CCC(c2ccc(Cl)cc2)=C(CN2CCc3nc(C(=O)NS(=O)(=O)c4ccc(N[C@H](CCN5CCOCC5)CSc5ccccc5)c(S(=O)(=O)C(F)(F)F)c4)sc3C2)C1
162 | CC1(C)CCC(c2ccc(Cl)cc2)=C(CN2CCN(c3ccc(C(=O)NS(=O)(=O)c4ccc(N5CC(F)(F)C5)c(S(=O)(=O)C(F)(F)F)c4)cc3)CC2)C1
14.6 | CC1(C)CCC(c2ccc(Cl)cc2)=C(CN2CCc3cc(C(=O)NS(=O)(=O)c4ccc(N[C@H](CCN5CCOCC5)CSc5ccccc5)c(S(=O)(=O)C(F)(F)F)c4)ccc3C2)C1
105 | CC1(C)CCC(c2ccc(Cl)cc2)=C(CN2CCN(c3ccc(C(=O)NS(=O)(=O)c4ccc(OCC5(CN6CC(F)(F)C6)COC5)c(S(=O)(=O)C(F)(F)F)c4)cc3)CC2)C1
116 | CN(CCO)c1ccc(S(=O)(=O)NC(=O)c2ccc(N3CCN(CC4=C(c5ccc(Cl)cc5)CCC(C)(C)C4)CC3)cc2)cc1S(=O)(=O)C(F)(F)F
> 1000 | CC1(C)CCC(c2ccc(Cl)cc2)=C(CNC2(Cn3cnc4ccc(C(=O)NS(=O)(=O)c5ccc(N[C@H](CCN6CCOCC6)CSc6ccccc6)c(S(=O)(=O)C(F)(F)F)c5)cc43)CC2)C1
33.5 | CC1(C)CCC(c2ccc(Cl)cc2)=C(CN2CCN(c3ccc(C(=O)NS(=O)(=O)c4ccc(N[C@@H](CC5CC5)CN5CCOCC5)c(S(=O)(=O)C(F)(F)F)c4)cc3)CC2)C1
> 1000 | Cn1ccc(S(=O)(=O)NC(=O)c2ccc(N3CCN(CC4=C(c5ccc(Cl)cc5)CCC(C)(C)C4)CC3)cc2)n1

target: Apoptosis regulator Bcl-2 (Homo sapiens, UniProt P10415); assay: Displacement of Bax-derived peptide from Bcl-2 (unknown origin) by fluorescence polarization assay
Sequence (P10415 whole entry): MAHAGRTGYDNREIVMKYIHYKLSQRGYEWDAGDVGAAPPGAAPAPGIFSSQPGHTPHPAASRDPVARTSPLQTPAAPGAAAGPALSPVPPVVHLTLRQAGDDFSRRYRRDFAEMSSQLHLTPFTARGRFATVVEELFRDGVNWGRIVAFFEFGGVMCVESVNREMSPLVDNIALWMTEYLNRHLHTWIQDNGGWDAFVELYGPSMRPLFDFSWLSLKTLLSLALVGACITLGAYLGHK

SMILES | IC50 [nM]
CC1(C)CCC(c2ccc(Cl)cc2)=C(CN2CCN(c3ccc(C(=O)NS(C)(=O)=O)cc3)CC2)C1 | 495
CC1(C)CCC(c2ccc(Cl)cc2)=C(CN2CCN(c3ccc(C(=O)NS(=O)(=O)c4ccc(N[C@@H](CC5CC5)C(=O)N5CCOCC5)c(S(=O)(=O)C(F)(F)F)c4)cc3)CC2)C1 | 68.2
CN(C)c1ccc(S(=O)(=O)NC(=O)c2ccc(N3CCN(CC4=C(c5ccc(Cl)cc5)CCC(C)(C)C4)CC3)cc2)cc1S(=O)(=O)C(F)(F)F | 65.1
CC1(C)CCC(c2ccc(Cl)cc2)=C(CNC2(Cn3cnc4cc(C(=O)NS(=O)(=O)c5ccc(N[C@H](CCN6CCOCC6)CSc6ccccc6)c(S(=O)(=O)C(F)(F)F)c5)ccc43)CC2)C1 | 108
CC1(C)CCC(c2ccc(Cl)cc2)=C(CN2CCN(c3ccc(C(=O)NS(=O)(=O)c4ccc(OCC5(CN6CCOCC6)COC5)c(S(=O)(=O)C(F)(F)F)c4)cc3)CC2)C1 | 14.5
CC1(C)CCC(c2ccc(Cl)cc2)=C(CN2CCN(c3ccc(C(=O)NS(=O)(=O)c4ccc(NC5(CN6CCOCC6)CC5)c(S(=O)(=O)C(F)(F)F)c4)cc3)CC2)C1 | 40.7
CC1(C)CCC(c2ccc(Cl)cc2)=C(CN2CCc3sc(C(=O)NS(=O)(=O)c4ccc(N[C@H](CCN5CCOCC5)CSc5ccccc5)c(S(=O)(=O)C(F)(F)F)c4)cc3C2)C1 | 57.9
CN1CCN(S(=O)(=O)NC(=O)c2ccc(N3CCN(CC4=C(c5ccc(Cl)cc5)CCC(C)(C)C4)CC3)cc2)CC1 | 168
CC1(C)CCC(c2ccc(Cl)cc2)=C(CN2CCc3ccc(C(=O)NS(=O)(=O)c4ccc(N[C@H](CCN5CCOCC5)CSc5ccccc5)c(S(=O)(=O)C(F)(F)F)c4)cc3CC2)C1 | 193

Second part, the compound after the results:

IC50 [nM] | SMILES
34.8 | CC1(C)CCC(c2ccc(Cl)cc2)=C(CN2CCN(c3ccc(C(=O)NS(=O)(=O)c4ccc(NC5(CN6CC(F)(F)C6)CC5)c(S(=O)(=O)C(F)(F)F)c4)cc3)CC2)C1
38.1 | CC1(C)CCC(c2ccc(Cl)cc2)=C(CN2CCc3nc(C(=O)NS(=O)(=O)c4ccc(N[C@H](CCN5CCOCC5)CSc5ccccc5)c(S(=O)(=O)C(F)(F)F)c4)sc3C2)C1
46.6 | CC1(C)CCC(c2ccc(Cl)cc2)=C(CN2CCN(c3ccc(C(=O)NS(=O)(=O)c4ccc(N5CC(F)(F)C5)c(S(=O)(=O)C(F)(F)F)c4)cc3)CC2)C1
12.6 | CC1(C)CCC(c2ccc(Cl)cc2)=C(CN2CCc3cc(C(=O)NS(=O)(=O)c4ccc(N[C@H](CCN5CCOCC5)CSc5ccccc5)c(S(=O)(=O)C(F)(F)F)c4)ccc3C2)C1
17.3 | CC1(C)CCC(c2ccc(Cl)cc2)=C(CN2CCN(c3ccc(C(=O)NS(=O)(=O)c4ccc(OCC5(CN6CC(F)(F)C6)COC5)c(S(=O)(=O)C(F)(F)F)c4)cc3)CC2)C1
46 | CN(CCO)c1ccc(S(=O)(=O)NC(=O)c2ccc(N3CCN(CC4=C(c5ccc(Cl)cc5)CCC(C)(C)C4)CC3)cc2)cc1S(=O)(=O)C(F)(F)F
> 1000 | CC1(C)CCC(c2ccc(Cl)cc2)=C(CNC2(Cn3cnc4ccc(C(=O)NS(=O)(=O)c5ccc(N[C@H](CCN6CCOCC6)CSc6ccccc6)c(S(=O)(=O)C(F)(F)F)c5)cc43)CC2)C1
20.7 | CC1(C)CCC(c2ccc(Cl)cc2)=C(CN2CCN(c3ccc(C(=O)NS(=O)(=O)c4ccc(N[C@@H](CC5CC5)CN5CCOCC5)c(S(=O)(=O)C(F)(F)F)c4)cc3)CC2)C1
67.4 | Cn1ccc(S(=O)(=O)NC(=O)c2ccc(N3CCN(CC4=C(c5ccc(Cl)cc5)CCC(C)(C)C4)CC3)cc2)n1
